Experimental data taken from patent US12389910B2, “Beta-lactams and their use as herbicides” (BASF SE, priority 2020, dated 2025).

Tests used:
AVEFA = experiment: greenhouse herbicidal activity, post-emergence treatment; format: in vivo, Avena fatua; conditions: post-emergence method, scale 0 to 100
From the text: (§1) The culture containers used were plastic flowerpots containing loamy sand with approximately 3.0% of humus as the substrate. The seeds of the test plants were sown separately for each species.
(§2) For the pre-emergence treatment, the active ingredients, which had been suspended or emulsified in water, were applied directly after sowing by means of finely distributing nozzles. The containers were irrigated gently to promote germination and growth and subsequently covered with transparent plastic hoods until the test plants had rooted. This cover caused uniform germination of the test plants, unless this had been impaired by the active ingredients. For the post-emergence treatment, the test plants were first grown to a height of 3 to 15 cm, depending on the plant habit, and only then treated with the active ingredients which had been suspended or emulsified in water. For this purpose, the test plants were either sown directly and grown in the same containers, or they were first grown separately as seedlings and transplanted into the test containers a few days prior to treatment.
(§3) Depending on the species, the test plants were kept at 10-25° C. or 20-35° C., respectively. The test period extended over 2 to 4 weeks. During this time, the test plants were tended, and their response to the individual treatments was evaluated.
Evaluation was carried out using a scale from 0 to 100. 100 means no emergence of the test plants, or complete destruction of at least the aerial moieties, and 0 means no damage, or normal course of growth. A good herbicidal activity is given at values of 80 to 90 and a very good herbicidal activity is given at values of 90 to 100.
The test plants used in the greenhouse experiments were of the following species: Bayer code Scientific name

ALOMY = experiment: as above; format: in vivo, Alopercurus myosuroides; conditions: post-emergence method, scale 0 to 100
From the text: as §1, §2, §3
(§4) Evaluation was carried out using a scale from 0 to 100. […]

SETFA [1] = experiment: as above; format: in vivo, Setaria faberi; conditions: post-emergence method, application rate 62.5 g/ha; scale 0 to 100
From the text: as §1, §2, §3, §4

AMARE [2] = experiment: as above; format: in vivo, Amaranthus retroflexus; conditions: post-emergence method, application rate 0,250 kg/ha; scale 0 to 100
From the text: as §1, §2, §3, §4

ECHCG [3] = experiment: as above; format: in vivo, Echinocloa crus-galli; conditions: post-emergence method, scale 0 to 100
From the text: as §1, §2, §3, §4

ECHCG [4] = experiment: greenhouse herbicidal activity, pre-emergence treatment; format: in vivo, Echinocloa crus-galli; conditions: pre-emergence method, application rate 0,250 kg/ha; scale 0 to 100
From the text: as §1, §2, §3, §4

SETFA [5] = experiment: as above; format: in vivo, Setaria faberi; conditions: pre-emergence method, scale 0 to 100
From the text: as §1, §2, §3, §4

AMARE [6] = experiment: as above; format: in vivo, Amaranthus retroflexus; conditions: pre-emergence method, application rate 0,500 kg/ha; scale 0 to 100
From the text: as §1, §2, §3, §4

APESV = experiment: as above; format: in vivo, Apera spica-venti; conditions: pre-emergence method, application rate 1,000 kg/ha; scale 0 to 100
From the text: as §1, §2, §3, §4

ABUTH [7] = experiment: greenhouse herbicidal activity, post-emergence treatment; format: in vivo, Abutilon theophrasti; conditions: post-emergence method, scale 0 to 100
From the text: as §1, §2, §3, §4

ABUTH [8] = experiment: greenhouse herbicidal activity, pre-emergence treatment; format: in vivo, Abutilon theophrasti; conditions: pre-emergence method, application rate 0,250 kg/ha; scale 0 to 100
From the text: as §1, §2, §3, §4

SETVI = experiment: greenhouse herbicidal activity, post-emergence treatment; format: in vivo, Setaria viridis; conditions: post-emergence method, application rate 16.0 g/ha; scale 0 to 100
From the text: as §1, §2, §3, §4

LOLMU = experiment: as above; format: in vivo; conditions: post-emergence method, application rate 16.0 g/ha; scale 0 to 100
From the text: as §1, §2, §3, §4

In the case of `COC(=O)[C@@H]1C=C[C@H](NC(=O)C2(C)CN(c3cccc(OC(F)(F)C(F)F)c3)C2=O)C1` (relative stereo) [compound 146], the “herbicidal activity against AVEFA” value (AVEFA; application rate 0,250 kg/ha) is reported as “good (A good herbicidal activity is given at values of 80 to 90)”.

For `CC1(C(=O)NC2C=CC(C(=O)O)C2)CN(c2cc(F)cc(F)c2)C1=O` (stereo not shown) [compound 133], the “herbicidal activity against ALOMY” value (ALOMY; application rate 62.5 g/ha) was “good (A good herbicidal activity is given at values of 80 to 90)”, the “herbicidal activity against SETFA” value (SETFA [1]) was “very good (a very good herbicidal activity is given at values of 90 to 100)” and the “herbicidal activity against AVEFA” value (AVEFA; application rate 62.5 g/ha) was “very good (a very good herbicidal activity is given at values of 90 to 100)”.

In the case of `CCC1(C(=O)NC(C)CC(=O)OC)CN(c2cc(Cl)cc(Cl)c2)C1=O` (stereo not shown) [compound 125], the “herbicidal activity against AMARE” value (AMARE [2]) is reported as “good (A good herbicidal activity is given at values of 80 to 90)”.

In the case of `COC(=O)[C@@H]1C=C[C@H](NC(=O)C2(C)CN(c3cc(C)cc(F)c3)C2=O)C1` (relative stereo) [compound 141], the “herbicidal activity against ECHCG” value (ECHCG [3]; application rate 0,250 kg/ha) is reported as “good (A good herbicidal activity is given at values of 80 to 90)”, the “herbicidal activity against ECHCG” value (ECHCG [4]) is reported as “good (A good herbicidal activity is given at values of 80 to 90)” and the “herbicidal activity against SETFA” value (SETFA [5]; application rate 0,250 kg/ha) is reported as “good (A good herbicidal activity is given at values of 80 to 90)”.

For `CCOC(=O)CC(C)NC(=O)C1(OC)CN(c2cc(Cl)cc(Cl)c2)C1=O` (stereo not shown) [compound 13], the “herbicidal activity against AMARE” value (AMARE [6]) was “good (A good herbicidal activity is given at values of 80 to 90)”.

For `COC(=O)CC(C)NC(=O)C1(C)CN(c2cc(Cl)cc(Cl)c2)C1=O` (stereo not shown) [compound 11], the “herbicidal activity against ECHCG” value (ECHCG [3]; application rate 1,000 kg/ha) was “very good (a very good herbicidal activity is given at values of 90 to 100)”, the “herbicidal activity against APESV” value (APESV) was “very good (a very good herbicidal activity is given at values of 90 to 100)” and the “herbicidal activity against SETFA” value (SETFA [5]; application rate 1,000 kg/ha) was “very good (a very good herbicidal activity is given at values of 90 to 100)”.

With `COC(=O)C1C=CC(NC(=O)C2(C)CN(c3ccc(F)c(C#N)c3)C2=O)C1` (stereo not shown) [compound 147] the “herbicidal activity against ABUTH” value (ABUTH [7]; application rate 0,250 kg/ha) was “very good (a very good herbicidal activity is given at values of 90 to 100)”.

For `COC(=O)CC(C)NC(=O)C1(C)CN(c2cc(C)cc(F)c2)C1=O` (stereo not shown) [compound 142], the “herbicidal activity against ABUTH” value (ABUTH [8]) was “good (A good herbicidal activity is given at values of 80 to 90)” and the “herbicidal activity against ALOMY” value (ALOMY; application rate 0,250 kg/ha) was “good (A good herbicidal activity is given at values of 80 to 90)”.

In the case of `COC(=O)CC(C)NC(=O)C1CN(c2cc(Cl)cc(Cl)c2)C1=O` (stereo not shown) [compound 131], the “herbicidal activity against ABUTH” value (ABUTH [7]; application rate 1,000 kg/ha) is reported as “very good (a very good herbicidal activity is given at values of 90 to 100)”.

With `COC(=O)C1C=CC(NC(=O)C2(C)CN(c3cccc(Cl)c3)C2=O)C1` (stereo not shown) [compound 136] the “herbicidal activity against SETVI” value (SETVI) was “very good (a very good herbicidal activity is given at values of 90 to 100)”, the “herbicidal activity against LOLMU” value (LOLMU) was “very good (a very good herbicidal activity is given at values of 90 to 100)” and the “herbicidal activity against AVEFA” value (AVEFA; application rate 16.0 g/ha) was “very good (a very good herbicidal activity is given at values of 90 to 100)”.
